Assay results from ChEMBL document CHEMBL3046396, “Synthesis and insecticidal evaluation of N-tert-butyl-N'-thio[1-(6-chloro-3-pyridylmethyl)-2-nitroiminoimidazolidine]-N,N'-diacylhydrazines” (2010).
The source made the active and inactive calls. The rule behind the calls is not given here.

Assays:
Mythimna separata [1] = experiment: Larvicidal activity against fourth-instar larval stage of Mythimna separata (Oriental armyworm) in compound-pretreated corn leaves assessed as mortality at 50 mg/l after 4 days; assay type: functional
Aphis fabae [2] = experiment: Insecticidal activity against apterous adult stage of Aphis fabae ( black bean aphids) in soybean tender shoots assessed as death rate at 200 mg/l treated for 5 secs measured after 48 hr by modified FAO dip test; assay type: functional
Aphis fabae [3] = experiment: Insecticidal activity against apterous adult stage of Aphis fabae (black bean aphids) in soybean tender shoots assessed as induction of premature, abnormal and lethal larva moult at 10 mg/l treated for 5 secs measured after 3 days by modified FAO dip test; assay type: functional, organism-based
Mythimna separata [4] = experiment: Larvicidal activity against fourth-instar larval stage of Mythimna separata (Oriental armyworm) in compound-pretreated corn leaves assessed as mortality at 10 mg/l after 4 days; assay type: functional
Mythimna separata [5] = experiment: Larvicidal activity against fourth-instar larval stage of Mythimna separata (Oriental armyworm) in compound-pretreated corn leaves assessed as mortality at 5 mg/l after 4 days; assay type: functional
Aphis fabae [6] = experiment: Insecticidal activity against apterous adult stage of Aphis fabae (black bean aphids) in soybean tender shoots assessed as mortality at 200 mg/l treated for 5 secs measured after 2 hr by modified FAO dip test; assay type: functional, organism-based
Mythimna separata [7] = experiment: Larvicidal activity against fourth-instar larval stage of Mythimna separata (Oriental armyworm) in compound-pretreated corn leaves assessed as mortality at 25 mg/l after 4 days; assay type: functional
Mythimna separata [8] = experiment: Larvicidal activity against fourth-instar larval stage of Mythimna separata (Oriental armyworm) in compound-pretreated corn leaves assessed as mortality at 500 mg/l after 4 days; assay type: functional
Mythimna separata [9] = experiment: Larvicidal activity against fourth-instar larval stage of Mythimna separata (Oriental armyworm) in compound-pretreated corn leaves assessed as mortality at 100 mg/l after 4 days; assay type: functional
Mythimna separata [10] = experiment: Larvicidal activity against fourth-instar larval stage of Mythimna separata (Oriental armyworm) in compound-pretreated corn leaves assessed as mortality at 200 mg/l after 4 days; assay type: functional

Compound | mortality at 50 µg/mL (Mythimna separata [1]) [%] | Activity (Aphis fabae [2]) [%] | Activity (Aphis fabae [3]) | mortality at 10 µg/mL (Mythimna separata [4]) [%] | mortality at 5 µg/mL (Mythimna separata [5]) [%] | Activity (Aphis fabae [6]) | mortality at 25 µg/mL (Mythimna separata [7]) [%] | mortality at 500 µg/mL (Mythimna separata [8]) [%] | mortality at 100 µg/mL (Mythimna separata [9]) [%] | mortality at 200 µg/mL (Mythimna separata [10]) [%]
CCc1ccc(C(=O)N(SN2CCN(Cc3ccc(Cl)nc3)/C2=N/[N+](=O)[O-])N(C(=O)c2cc(C)cc(C)c2)C(C)(C)C)cc1 | 100 | 53 | Active | 90 | 70 | Active | 100 |  |  | 
COc1ccccc1C(=O)N(SN1CCN(Cc2ccc(Cl)nc2)/C1=N/[N+](=O)[O-])N(C(=O)c1ccccc1OC)C(C)(C)C | 10 | 91 | Active |  |  | Active | 0 | 80 | 40 | 70
CC(C)(C)N(C(=O)c1ccccc1)N(SN1CCN(Cc2ccc(Cl)nc2)/C1=N/[N+](=O)[O-])C(=O)c1ccccc1 |  | 100 | Active |  |  | Active |  | 100 | 0 | 80
COc1ccc(C(=O)N(N(SN2CCN(Cc3ccc(Cl)nc3)/C2=N/[N+](=O)[O-])C(=O)c2ccccc2)C(C)(C)C)cc1 | 0 | 95 | Active |  |  | Active |  | 80 | 20 | 70
O=[N+]([O-])/N=C1\NCCN1Cc1ccc(Cl)nc1 [IMIDACLOPRID] | 30 | 100 |  | 10 |  | Active | 20 |  | 60 | 100
CC(C)(C)N(C(=O)c1ccc(Cl)cc1)N(SN1CCN(Cc2ccc(Cl)nc2)/C1=N/[N+](=O)[O-])C(=O)c1ccccc1 | 40 | 87 | Active |  |  | Active | 0 | 100 | 70 | 80
COc1ccccc1C(=O)N(N(SN1CCN(Cc2ccc(Cl)nc2)/C1=N/[N+](=O)[O-])C(=O)c1ccccc1)C(C)(C)C | 0 | 92 | Active |  |  | Active |  | 90 | 20 | 40
CC(C)(C)N(NC(=O)c1ccccc1)C(=O)c1cccc(Cl)c1 | 95 | 12 | Active | 0 |  |  | 45 |  | 100 | 
COc1ccccc1C(=O)NN(C(=O)c1ccccc1OC)C(C)(C)C |  | 0 | Active |  |  |  |  | 10 |  | 70
COc1ccc(C(=O)N(SN2CCN(Cc3ccc(Cl)nc3)/C2=N/[N+](=O)[O-])N(C(=O)c2ccc(OC)cc2)C(C)(C)C)cc1 | 0 | 87 | Active |  |  | Active |  | 100 | 40 | 70
CC(C)(C)N(NC(=O)c1ccccc1)C(=O)c1ccccc1 [RH-5849] | 100 | 0 | Active | 0 |  |  | 70 |  |  | 
CCc1ccc(C(=O)NN(C(=O)c2cc(C)cc(C)c2)C(C)(C)C)cc1 [TEBUFENOZIDE] |  | 0 | Active | 100 | 70 |  |  |  |  | 
Cc1cc(C)cc(C(=O)NN(C(=O)c2cc(C)cc(C)c2)C(C)(C)C)c1 | 95 | 10 | Active | 10 |  |  | 70 |  |  | 
COc1ccc(C(=O)N(NC(=O)c2ccccc2)C(C)(C)C)cc1 |  | 0 | Active |  |  |  |  | 60 |  | 0
COc1ccccc1C(=O)N(NC(=O)c1ccccc1)C(C)(C)C | 100 | 32 | Active | 10 | 0 |  | 90 |  |  | 
CC(C)(C)N(C(=O)c1ccccc1Cl)N(SN1CCN(Cc2ccc(Cl)nc2)/C1=N/[N+](=O)[O-])C(=O)c1ccccc1 | 30 | 84 | Active | 0 |  | Active | 10 | 100 | 50 | 60
CC(C)(C)N(C(=O)c1cccc(Cl)c1)N(SN1CCN(Cc2ccc(Cl)nc2)/C1=N/[N+](=O)[O-])C(=O)c1ccccc1 | 25 | 86 | Active |  |  | Active | 0 | 100 | 70 | 80
Cc1cc(C)cc(C(=O)N(N(SN2CCN(Cc3ccc(Cl)nc3)/C2=N/[N+](=O)[O-])C(=O)c2ccccc2)C(C)(C)C)c1 | 10 | 80 | Active |  |  | Active | 0 | 95 | 55 | 85
COc1ccc(C(=O)NN(C(=O)c2ccc(OC)cc2)C(C)(C)C)cc1 | 0 | 22 | Active |  |  |  |  | 95 | 10 | 40
Cc1cc(C)cc(C(=O)N(SN2CCN(Cc3ccc(Cl)nc3)/C2=N/[N+](=O)[O-])N(C(=O)c2cc(C)cc(C)c2)C(C)(C)C)c1 | 25 | 89 | Active | 0 |  | Active | 10 | 100 | 50 | 70
CC(C)(C)N(NC(=O)c1ccccc1)C(=O)c1ccc(Cl)cc1 | 100 | 26 | Active | 25 | 0 |  | 100 |  |  | 
CC(C)(C)N(NC(=O)c1ccccc1)C(=O)c1ccccc1Cl | 100 | 18 | Active | 75 | 0 |  | 90 |  |  | 
Cc1cc(C)cc(C(=O)N(NC(=O)c2ccccc2)C(C)(C)C)c1 | 100 | 12 | Active | 10 |  |  | 60 |  |  | 
